The values that follow are results of earlier work, collected in patent US7390809B2, “Beta-amino heterocyclic dipeptidyl peptidase inhibitors for diabetes” (Merck & Co., Inc., priority 2002, dated 2008).

The test system of data set [1] is cardiac allograft. Conditions: rats; survival doubled from day 7.
Data set [2] has as its system hematopoiesis. The following applies: mouse, cyclophosphamide-induced neutropenia.
In data set [3] the target is T1, DP-IV (Homo sapiens, UniProt P27487).
T1 construct: GRF is rapidly degraded in plasma to GRF[3-44]
T1 sequence (P27487 whole entry): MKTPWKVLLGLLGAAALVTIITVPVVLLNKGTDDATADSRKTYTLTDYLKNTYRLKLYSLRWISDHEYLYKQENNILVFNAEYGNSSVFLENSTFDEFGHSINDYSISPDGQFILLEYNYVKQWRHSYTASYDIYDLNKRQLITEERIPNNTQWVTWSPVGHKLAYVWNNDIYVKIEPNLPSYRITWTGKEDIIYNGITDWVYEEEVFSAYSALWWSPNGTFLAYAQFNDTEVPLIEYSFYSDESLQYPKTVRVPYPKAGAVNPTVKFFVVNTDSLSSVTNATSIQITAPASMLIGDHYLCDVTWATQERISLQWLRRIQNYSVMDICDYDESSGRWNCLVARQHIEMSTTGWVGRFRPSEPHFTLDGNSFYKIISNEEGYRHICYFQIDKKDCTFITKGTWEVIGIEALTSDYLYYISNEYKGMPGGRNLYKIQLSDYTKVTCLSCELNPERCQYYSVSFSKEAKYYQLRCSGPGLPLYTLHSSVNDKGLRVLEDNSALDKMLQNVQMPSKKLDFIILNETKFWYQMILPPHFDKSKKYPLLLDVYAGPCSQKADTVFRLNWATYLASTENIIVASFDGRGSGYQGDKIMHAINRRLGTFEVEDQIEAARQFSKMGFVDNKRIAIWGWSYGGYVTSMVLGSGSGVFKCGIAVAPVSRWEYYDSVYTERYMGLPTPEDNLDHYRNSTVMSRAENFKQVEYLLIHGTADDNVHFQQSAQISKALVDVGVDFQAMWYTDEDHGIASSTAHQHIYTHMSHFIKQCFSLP

For `CC(C)N1CCC(c2ccccc2)(c2ccccc2)CC1` [Prodipine, Pro-Pro-diphenyl-phosphonate], the cardiac allograft survival in data set [1] is recorded as 14 day. In the case of `CC(C)[C@H](N)C(=O)N1CCC[C@H]1B(O)O` [Val-Boro-Pro], the effect on hematopoiesis result in data set [2] is listed as “stimulated hematopoiesis”. Regarding diprotin A, the “degradation of GRF in plasma to GRF[3-44]” value in data set [3] was “prevented”.
